# Columns and labels:
# Assay in all cases: relative viability (nuclei count vs DMSO), 5 days (fraction); higher = more cells survive
# ABC-1 = tested on: ABC-1
# How it was run: (§1)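 Lung cancer cell lines were pin-tool dosed in 1536-well plates on the day after seeding, with either a lone drug or a fixed anchor-drug dose plus five library-drug doses (not always all listed) in √10 steps. Nuclei were counted on 4× images after 5 days. Relative viability is the ratio of treated-well to vehicle-well nuclei counts, with each value a median of duplicate plates.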
# CAL-12T = tested on: CAL-12T
# How it was run: as §1
# COR-L23 = tested on: COR-L23
# How it was run: as §1
# EMC-BAC-2 = tested on: EMC-BAC-2
# How it was run: as §1
# HARA = tested on: HARA
# How it was run: as §1
# HCC-366 = tested on: HCC-366
# How it was run: as §1
# HOP-62 = tested on: HOP-62
# How it was run: as §1
# LK-2 = tested on: LK-2
# How it was run: as §1
# NCI-H1437 = tested on: NCI-H1437
# How it was run: as §1
# NCI-H1563 = tested on: NCI-H1563
# How it was run: as §1
# NCI-H1650 = tested on: NCI-H1650
# How it was run: as §1
# NCI-H1651 = tested on: NCI-H1651
# How it was run: as §1
# NCI-H1734 = tested on: NCI-H1734
# How it was run: as §1
# NCI-H1755 = tested on: NCI-H1755
# How it was run: as §1
# NCI-H2347 = tested on: NCI-H2347
# How it was run: as §1
# NCI-H3122 = tested on: NCI-H3122
# How it was run: as §1
# NCI-H441 = tested on: NCI-H441
# How it was run: as §1
# NCI-H596 = tested on: NCI-H596
# How it was run: as §1
# NCI-H727 = tested on: NCI-H727
# How it was run: as §1
# PC-3 [JPC-3] = tested on: PC-3 [JPC-3]
# How it was run: as §1
# RERF-LC-KJ = tested on: RERF-LC-KJ
# How it was run: as §1
# SK-LU-1 = tested on: SK-LU-1
# How it was run: as §1
# UMC-11 = tested on: UMC-11
# How it was run: as §1
structure (smiles),measurement,setting,value
CN1CCN(CCOc2cc(OC3CCOCC3)c3c(Nc4c(Cl)ccc5c4OCO5)ncnc3c2)CC1 [Saracatinib] + C[C@@H](Oc1cc(-c2cnn(C3CCNCC3)c2)cnc1N)c1c(Cl)ccc(F)c1Cl [Crizotinib] (partner 1 µM),relative viability,ABC-1; first compound 0.02 µM,1.1
same,relative viability,ABC-1; first compound 0.2 µM,1.06
same,relative viability,ABC-1; first compound 0.6325 µM,0.918
same,relative viability,ABC-1; first compound 2 µM,0.705
same,relative viability,CAL-12T; first compound 0.02 µM,0.649
same,relative viability,CAL-12T; first compound 0.2 µM,0.522
same,relative viability,CAL-12T; first compound 0.6325 µM,0.746
same,relative viability,CAL-12T; first compound 2 µM,0.367
same,relative viability,COR-L23; first compound 0.02 µM,0.65
same,relative viability,COR-L23; first compound 0.2 µM,0.52
same,relative viability,COR-L23; first compound 0.6325 µM,0.658
same,relative viability,COR-L23; first compound 2 µM,0.558
same,relative viability,EMC-BAC-2; first compound 0.02 µM,0.701
same,relative viability,EMC-BAC-2; first compound 0.2 µM,0.72
same,relative viability,EMC-BAC-2; first compound 0.6325 µM,0.652
same,relative viability,EMC-BAC-2; first compound 2 µM,0.463
same,relative viability,HARA; first compound 0.02 µM,1.02
same,relative viability,HARA; first compound 0.6325 µM,0.829
same,relative viability,HARA; first compound 2 µM,0.64
same,relative viability,HCC-366; first compound 0.02 µM,0.547
same,relative viability,HCC-366; first compound 0.6325 µM,0.435
same,relative viability,HCC-366; first compound 2 µM,0.182
same,relative viability,HOP-62; first compound 0.02 µM,0.772
same,relative viability,HOP-62; first compound 0.2 µM,0.928
same,relative viability,HOP-62; first compound 0.6325 µM,0.841
same,relative viability,HOP-62; first compound 2 µM,1.02
same,relative viability,LK-2; first compound 0.02 µM,0.253
same,relative viability,LK-2; first compound 0.2 µM,0.225
same,relative viability,LK-2; first compound 0.6325 µM,0.196
same,relative viability,LK-2; first compound 2 µM,0.201
same,relative viability,NCI-H1437; first compound 0.02 µM,0.912
same,relative viability,NCI-H1437; first compound 0.2 µM,0.866
same,relative viability,NCI-H1437; first compound 0.6325 µM,0.865
same,relative viability,NCI-H1437; first compound 2 µM,0.943
same,relative viability,NCI-H1563; first compound 0.02 µM,0.905
same,relative viability,NCI-H1563; first compound 0.2 µM,0.778
same,relative viability,NCI-H1563; first compound 0.6325 µM,0.677
same,relative viability,NCI-H1563; first compound 2 µM,0.635
same,relative viability,NCI-H1650; first compound 0.02 µM,1.03
same,relative viability,NCI-H1650; first compound 0.2 µM,0.637
same,relative viability,NCI-H1650; first compound 0.6325 µM,0.582
same,relative viability,NCI-H1650; first compound 2 µM,0.413
same,relative viability,NCI-H1651; first compound 0.02 µM,0.866
same,relative viability,NCI-H1651; first compound 0.2 µM,0.802
same,relative viability,NCI-H1651; first compound 0.6325 µM,0.923
same,relative viability,NCI-H1651; first compound 2 µM,0.751
same,relative viability,NCI-H1734; first compound 0.02 µM,0.751
same,relative viability,NCI-H1734; first compound 0.6325 µM,0.656
same,relative viability,NCI-H1734; first compound 2 µM,0.507
same,relative viability,NCI-H1755; first compound 0.02 µM,0.883
same,relative viability,NCI-H1755; first compound 0.2 µM,0.536
same,relative viability,NCI-H1755; first compound 0.6325 µM,0.779
same,relative viability,NCI-H1755; first compound 2 µM,0.662
same,relative viability,NCI-H2347; first compound 0.02 µM,0.732
same,relative viability,NCI-H2347; first compound 0.2 µM,0.686
same,relative viability,NCI-H2347; first compound 0.6325 µM,1.03
same,relative viability,NCI-H2347; first compound 2 µM,0.486
same,relative viability,NCI-H3122; first compound 0.02 µM,0.28
same,relative viability,NCI-H3122; first compound 0.6325 µM,0.226
same,relative viability,NCI-H3122; first compound 2 µM,0.187
same,relative viability,NCI-H441; first compound 0.02 µM,0.95
same,relative viability,NCI-H441; first compound 0.2 µM,0.601
same,relative viability,NCI-H441; first compound 0.6325 µM,0.798
same,relative viability,NCI-H441; first compound 2 µM,0.646
same,relative viability,NCI-H596; first compound 0.02 µM,0.727
same,relative viability,NCI-H596; first compound 0.2 µM,0.775
same,relative viability,NCI-H596; first compound 0.6325 µM,0.981
same,relative viability,NCI-H596; first compound 2 µM,0.626
same,relative viability,NCI-H727; first compound 0.02 µM,0.904
same,relative viability,NCI-H727; first compound 0.2 µM,0.452
same,relative viability,NCI-H727; first compound 0.6325 µM,0.617
same,relative viability,NCI-H727; first compound 2 µM,0.378
same,relative viability,PC-3 [JPC-3]; first compound 0.02 µM,0.997
same,relative viability,PC-3 [JPC-3]; first compound 0.2 µM,0.983
same,relative viability,PC-3 [JPC-3]; first compound 0.6325 µM,0.942
same,relative viability,PC-3 [JPC-3]; first compound 2 µM,0.582
same,relative viability,RERF-LC-KJ; first compound 0.02 µM,0.81
same,relative viability,RERF-LC-KJ; first compound 0.2 µM,0.833
same,relative viability,RERF-LC-KJ; first compound 0.6325 µM,0.945
same,relative viability,RERF-LC-KJ; first compound 2 µM,0.778
same,relative viability,SK-LU-1; first compound 0.02 µM,0.774
same,relative viability,SK-LU-1; first compound 0.2 µM,0.646
same,relative viability,SK-LU-1; first compound 0.6325 µM,0.404
same,relative viability,SK-LU-1; first compound 2 µM,0.331
same,relative viability,UMC-11; first compound 0.02 µM,0.571
same,relative viability,UMC-11; first compound 0.6325 µM,0.677
same,relative viability,UMC-11; first compound 2 µM,0.386

# — the supplement of paper PMC10307832
